# Test system: mouse counterpart genes
# Experiment: Mouse GeneChip (MG-U74A to MG-U74C) analysis of lung and trachea of the OVA antigen-exposed bronchial hypersensitivity model, S-Sal group versus S-OVA group
# Assay type: in vivo
# Conditions: S-Sal vs S-OVA group
substance,measurement,setting,value
"ovalbumin [OVA antigen, ovalbumin antigen used for sensitization and inhalation to induce bronchial hypersensitivity in mice]","Fold Change, myxovirus (influenza virus) resistance 1 (mouse Probe ID 98417_at)","1st, P/A: A",1.1
same,"Fold Change, myxovirus (influenza virus) resistance 2 (mouse Probe ID 102699_at)","1st, P/A: A",1.2
same,"Fold Change, myxovirus (influenza virus) resistance 1 (mouse Probe ID 98417_at)","2nd, P/A: A",2.2
same,"Fold Change, myxovirus (influenza virus) resistance 2 (mouse Probe ID 102699_at)","2nd, P/A: P",0.909
same,"Fold Change, myxovirus (influenza virus) resistance 1 (mouse Probe ID 98417_at)","3rd, P/A: A",3
same,"Fold Change, myxovirus (influenza virus) resistance 2 (mouse Probe ID 102699_at)","3rd, P/A: A",1.3

# — patent US20050208496A1, “Methods of testing for bronchial asthma or chronic obstructive pulmonary disease” (Genox Research, Inc., priority 2002, published 2005)
